Laboratory results published in US6632794B1, “Insulin-like growth factor agonist molecules” (Genentech, Inc., priority 1997, dated 2003).
Positions of bridges follow the written chain, without caps; N, C: chain ends. Residues, ends and D or L forms follow the SMILES beside them. No end group written: not given here.

Experiments:
dwarf rats = test: Long-term administration to GH-deficient dwarf (dw/dw) rats; type: in vivo, rat
Source text: Young female dwarf rats (11-12 wk of age, 115-140 g) were bred by homozygous mating (Charles Rivers Laboratories) and delivered to the Genentech Animal House where they were housed five per cage on polystyrene chips and fed a standard animal chow and water ad libitum, and kept in a room of constant humidity and with controlled temperature and lighting. The animals were weighed, and based on uniformity of body weight, 37 of the animals were selected and randomized into treatment groups and cages to give six treatment groups of equal initial body weights (approximately 120 g).
The study consisted of six groups of rats with six or seven rats per group.
The mutant (Leu^24,Ala^31)hIGF-I and native sequence recombinant human IGF-I were administered by osmotic minipumps (ALZET 2001™, Alza, Palo Alto, Calif.) which were placed in a subcutaneous tunnel in the dorsal neck region while the rats were anesthetized with KETAMINE/XYLAZINE™ anesthesia. The pumps were filled with solutions so that the calculated daily dose was 120 μg per rat per day (1 mg/kg/day), assuming that the pump delivered as per the manufacturer's description (24 μl of solution per day).
Recombinant human GH (50 μg/day) was administered for eight days by twice daily sc injection, with each injection being of 25 μg in a volume of 100 μl.
Body weights were measured daily in the morning. After 8 days the animals were anesthetized using CO2 and exsanguinated by cardiac puncture. The remaining blood was allowed to clot and serum was separated and stored for further analysis.
(§1) Spleen, thymus, heart, liver, kidney, and perirenal fat were removed and weighed. The tibia was removed and fixed in neutral buffered formalin for histological measurement of epiphyseal plate width.
Serum chemistries were measured using a TECHNICON CHEM I PLUS™ analyzer. Serum insulin concentration was measured using an RIA kit supplied by Linco, Inc. To measure the IGF-I concentrations the serum was extracted using acid ethanol and the supernatant diluted to neutrality and assayed for IGF-I by RIA. The concentration of rat IGF-I in serum extract was measured by RIA using a kit from Diagnostic Systems Laboratories, Inc. Human IGF-I concentration was measured by RIA at Genentech, Inc.
Tibia were sectioned longitudinally, stained with TOLULENE BLUE™ stain and mounted on microscope slides. The tibial epiphyseal plate width was measured using an ocular micrometer attached to a microscope.
Data were analyzed statistically by analysis of variance using one-factor ANOVA followed by Duncan's Range Test.

hypophysectomized rats = test: Long-term administration to hypophysectomized rats; type: in vivo, rat; conditions: one week
Source text: Young female SD rats were hypophysectomized at Taconic Laboratories and delivered several days later. The rats were then weighed frequently and those whose weight increased or decreased by more than 7 grams between 2 and 3 weeks following hypophysectomy were excluded from the study. Twenty-five rats were grouped randomly into five groups based on their body weight, and then randomly assigned to cages, with four rats per cage. The animals were allowed ad libitum access to food and water and housed in a room controlled for temperature and lighting.
1) Excipient pump, excipient injections;
2) (Leu^24,Ala^31)hIGF-I (10 μg/day, by SC minipump), excipient injections;
3) (Leu^24,Ala^31)hIGF-I (50 μg/day, by SC minipump), excipient injections;
4) Recombinant human GH (NUTROPIN™ brand from Genentech, Inc., 20 μg/day, by SC injection, two injections each of 10 μg/day), excipient minipump; or
5) (Leu^24,Ala^31)hIGF-I (50 μg/day, by SC minipump) plus recombinant human GH (20 μg/day, by SC injection, two injections each of 10 μg/day).
The rats were dosed for one week.
The mutant (Leu^24,Ala^31)hIGF-I was administered by osmotic minipumps (ALZET 2001™, Alza, Palo Alto, Calif.), which were placed in a subcutaneous tunnel in the dorsal neck region of the rats while they were anesthetized with KETAMINE™/XYLAZINE™ anesthesia. The pumps were filled with solutions so that the calculated daily dose was 50 μg or 10 μg, assuming that 24 μl of solution was delivered each day for one week.
Recombinant human GH was administered for one week by twice daily SC injections of 10 μg in 100 μl volume.
Body weights were measured daily in the morning. At the end of the week of dosing the animals were anesthetized via CO2 and exsanguinated via cardiac puncture. The remaining blood was allowed to clot and serum was separated and stored for further analysis.
as §1
Serum chemistries were measured on an automated Chem I analyzer. Serum insulin concentration was measured using an RIA Kit supplied by Linco, Inc. To measure the IGF-I concentrations the serum was extracted using acid ethanol and the supernatant diluted to neutrality and assayed for IGF-I by RIA.
Tibia were sectioned longitudinally, stained with Toluene Blue, and mounted on microscope slides. The tibial epiphyseal plate width was measured using an ocular micrometer attached to a microscope.
Data were analyzed statistically by analysis of variance using one factor and two factor ANOVA.

IGFBP-1 [1] = target: T1, IGFBP-1 (Homo sapiens, UniProt P08833); test: BIAcore competition assay, IGFBP-1 binding to IGF-I; conditions: for IGF-I Inhibition IC50 (114)/IC50 (mut) / IGF-I Inhibition IC50 (116)/IC50 (mut): g3 bp1-01 selectants by BIAcore, higher = better; for IGF-I Inhibition IC50 (114)/IC50 (mut): relative to bp1-14; for IGF-I Inhibition IC50 (116)/IC50 (mut): relative to bp1-16
T1 construct: biotin (chemical label, EZ-LINK NHS-SS-Biotin)
T1 sequence (P08833 26-259): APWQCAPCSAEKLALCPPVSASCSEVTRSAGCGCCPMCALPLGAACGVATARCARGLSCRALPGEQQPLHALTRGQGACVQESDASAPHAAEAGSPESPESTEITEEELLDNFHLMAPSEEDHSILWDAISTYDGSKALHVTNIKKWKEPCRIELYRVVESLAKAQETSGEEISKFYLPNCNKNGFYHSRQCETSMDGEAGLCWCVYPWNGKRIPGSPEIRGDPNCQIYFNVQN
Description: Two series of synthetic peptide variants were generated to determine which side chains of the bp1-01 peptide might contribute directly to binding IGFBP-1. In the first series an alanine-scanning approach (Cunningham and Wells, Science, 244: 1081-1085 (1989)) was used to remove that portion of each side chain beyond the beta carbon. The contribution of these atoms to the free energy of binding of the peptide to IGFBP-1 was then assessed by measuring the potency (IC50) of the variant for inhibiting IGFBP-1 binding to IGF-I or IGF-II in a BIAcore™competition assay, analogous to that described for IGFBP-3 (see Example 7).
(§2) Substitutions at the N-terminus or C-terminus yielded affinity improvements. […] All of these peptides had similar or improved apparent affinity for IGFBP-1 as compared with bp1-01 and bp1-02 and are thus expected to increase the availability of IGF-I in an in vitro cell culture assay.

IGFBP-3 [2] = target: T2, IGFBP-3 (Homo sapiens, UniProt P17936); test: BIAcore competition assay, IGFBP-3 binding to immobilized IGF-II; conditions: 20 nM IGFBP-3; approximately 1500 RU immobilized IGF-II; read-out: IC50, inhibition of IGFBP-3 binding to IGF-II (BIAcore)
Description: D. BIAcore™ Competition Assay (for IGFBP-3 Binders)
IGF-II was immobilized on a dextran chip for inhibition assays using a BIAcore™ 2000 surface-plasmon-resonance device (BIAcore, Inc., Piscataway, N.J.) to measure free binding protein. IGF-II was biotinylated as described above, and injected over a chip to which streptavidin had been coupled (BIAcore, Inc.) to give approximately 1500 RU of immobilized IGF-II. […] Serial dilutions of peptide were mixed with a constant concentration (20 nM) of IGFBP-3. After incubation for ≧1 hour at room temperature, an aliquot of 20 μl was injected at a flow rate of 20 μl/min over the IGF-II chip. Following the injection, a response reading was taken to measure the relative amount of IGFBP-3 bound to the IGF-II.

IGFBP-3 [3] = target: T2, IGFBP-3; test: BIAcore competition assay, IGFBP-3 binding to immobilized IGF-I; conditions: 40 nM IGFBP-3; 400 to 800 RU immobilized IGF-I; read-out: BIAcore Assay IC50, inhibition of IGF-I binding to IGFBP-3
Description: A. BIAcore™ Competition Assay (for IGFBP-3 Binders)
IGF-I was immobilized on a dextran chip for inhibition assays using a BIAcore™ 2000 surface-plasmon-resonance device (BIAcore, Inc., Piscataway, N.J.) to measure free binding protein. […] Serial dilutions of peptide were mixed with a constant concentration (40 nM) of IGFBP-3. After incubation for >1 hour at room temperature, an aliquot of 20 μL was injected at a flow rate of 20 μL/min over the IGF-I chip. Following the injection, a response reading was taken to measure the relative amount of IGFBP-3 bound to the IGF-I.

IGFBP-1 [4] = target: T1, IGFBP-1; test: Biotin-BP plate (ELISA) assay, biotinylated IGFBP-1 binding to IGF-I; conditions: C-terminal bp1-01 variants by ELISA
Description: 1. Biotin-BP Assay (for IGFBP-1 Binders)
For inhibition of IGFBP-1 binding, IGFBP-1 (as well as IGFBP-3 as a control) were biotinylated as described above. MAXISORP™plates were coated and blocked as described above, using 2 μg/mL IGF-I. In a separate plate, serial dilutions of peptide were premixed with a constant concentration (20 nM) of biotinylated IGFBP-1. After 20 min. at room temperature, the mixture was added to the IGF-I plate. The peptide/IGFBP mix was then removed and the plate was washed ten times with PBS buffer containing 0.05% TWEEN-20™ surfactant. Bound biotin-IGFBP-1 was then detected using streptavidin-conjugated horse radish peroxidase, and a chromogenic substrate.
A second series of peptides made use of non-natural amino acids to probe whether other structural features such as an added methyl group at the alpha carbon, or an isomer (D-alanine) could affect peptide binding to IGFBP-1.
as §2

[5] = serum at sacrifice, 8 days, Means ± SEM

T2 sequence (P17936 28-291): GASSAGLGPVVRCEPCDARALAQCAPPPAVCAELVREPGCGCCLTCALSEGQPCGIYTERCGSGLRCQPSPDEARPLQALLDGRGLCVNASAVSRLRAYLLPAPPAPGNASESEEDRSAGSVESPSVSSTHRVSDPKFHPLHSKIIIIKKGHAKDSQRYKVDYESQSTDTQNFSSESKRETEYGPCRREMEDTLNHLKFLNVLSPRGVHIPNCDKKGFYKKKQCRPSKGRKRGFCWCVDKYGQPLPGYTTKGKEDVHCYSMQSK

## hGH: Recombinant human GH (NUTROPIN brand from Genentech, Inc.)
Dwarf rats; 8 days
  epiphyseal plate widths: significantly (p<0.05) increased
Dwarf rats; Day 5, hGH 50 μg/d, IGF mutant 120 μg/day
  body weight gain: 12.4 ± 0.9 g
Dwarf rats; [5]
  AST: 123 ± 13 U/l
  BUN: 15.6 ± 0.7 mg/dL
  CK: 184 ± 29 u/l
  Creatinine: 0.33 ± 0.02 mg/dL
  Glucose: 192 ± 10 mg/dL
  Insulin: 1.48 ± 0.29 ng/mL
Hypophysectomized rats; IGF agonist 50 μg/day SC minipump, hGH 20 μg/day SC, or both
  body weight gain: significant increase in body weight
Hypophysectomized rats; IGF agonist 50 μg/day, hGH 20 μg/day, or both
  absolute thymus weight: almost equal
Hypophysectomized rats; IGF agonist 10 and 50 μg, hGH 20 μg/day, or combination
  absolute and relative heart weight: slightly increased absolute heart weight and caused a fall in relative heart weight
Hypophysectomized rats; IGF mutant 10 and 50 μg/day, hGH 20 μg/day, or hGH plus 50 μg/day
  absolute spleen weight: greater than that to the IGF agonist
Hypophysectomized rats; rhGH 20 μg/day
  epiphyseal plate width: around 400 μm

## CC(C)C[C@@H]1NC(=O)[C@H](Cc2c[nH]c3ccccc23)NC(=O)[C@H](CCC(N)=O)NC(=O)[C@H](CC(C)C)NC(=O)[C@@H]2CCCN2C(=O)CNC(=O)[C@H](C)NC(=O)[C@H](CCCNC(=N)N)NC(=O)[C@@H](NC(=O)CNC(=O)[C@@H](NC(=O)[C@H](CCC(=O)O)NC(=O)[C@@H](N)CO)C(C)C)CSSC[C@@H](C(=O)N[C@@H](CCC(=O)O)C(=O)N[C@@H](CCCCN)C(=O)N[C@@H](Cc2ccc(O)cc2)C(=O)N[C@@H](Cc2ccccc2)C(=O)N[C@@H](CO)C(=O)N[C@H](C(=O)N[C@@H](Cc2ccc(O)cc2)C(N)=O)[C@@H](C)O)NC1=O [bp1-21A] (H-SEVGCRAGPLQWLCEKYFSTY-NH2; disulfide 5-14)
IGFBP-1 [1]; IGFBP-1
  affinity improvement compared with bp1-14 (18-mer): 3 fold
IGFBP-1 [1]
  IGF-I Inhibition IC50 (114)/IC50 (mut): 3.2
  IGF-I Inhibition IC50 (116)/IC50 (mut): 15

## CC(C)C[C@@H]1NC(=O)[C@H](Cc2ccc(O)cc2)NC(=O)[C@H](Cc2c[nH]c3ccccc23)NC(=O)[C@H](CCC(=O)O)NC(=O)[C@H](C)NC(=O)[C@H](C(C)C)NC(=O)[C@@H]2CCCN2C(=O)[C@H](Cc2c[nH]c3ccccc23)NC(=O)[C@@H](NC(=O)[C@@H](N)C(C)C)CSSC[C@@H](C(=O)N[C@@H](CC(N)=O)C(=O)O)NC1=O [BP17] (H-VCWPVAEWYLCN-OH; disulfide 2-11; N-terminus and C-terminus assumed)
IGFBP-3 [2]
  IC50: 5.1 µM
IGFBP-3 [3]
  IC50: 9 µM

## CRAGPLQWLCEK [bp1-17]
IGFBP-1 [4]
  IGF-I Inhibition IC50 (mut)/IC50 (wt): >1000

## CRAGPLQWLCEKYFSTY-nh2 (CRAGPLQWLCEKYFSTY-NH2; disulfide 1-10) [bp1-21B]
IGFBP-1 [1]; IGFBP-1
  affinity improvement compared with bp1-16: ~3 fold

## CRAGPLQWLCE [bp1-04]
IGFBP-1 [4]
  IGF-I Inhibition IC50 (mut)/IC50 (wt): >1000

## CC(C)C[C@@H]1NC(=O)[C@H](Cc2c[nH]c3ccccc23)NC(=O)[C@H](CCC(N)=O)NC(=O)[C@H](CC(C)C)NC(=O)[C@@H]2CCCN2C(=O)CNC(=O)[C@H](C)NC(=O)[C@H](CCCNC(=N)N)NC(=O)[C@@H](NC(=O)[C@@H](NC(=O)[C@H](CCCNC(=N)N)NC(=O)[C@H](C)NC(=O)[C@@H](N)CCC(=O)O)C(C)C)CSSC[C@@H](C(=O)N[C@@H](CCC(=O)O)C(=O)N[C@@H](CCCCN)C(=O)N[C@@H](Cc2ccc(O)cc2)C(=O)N[C@@H](Cc2ccccc2)C(N)=O)NC1=O [bp1-20] (H-EARVCRAGPLQWLCEKYF-NH2; disulfide 5-14)
IGFBP-1 [1]
  IGF-I Inhibition IC50 (114)/IC50 (mut): 2.6
  IGF-I Inhibition IC50 (116)/IC50 (mut): 12
